Reference: US20230288433A1, “DETECTION OF PHOSPHOINOSITIDES IN BLOOD CELLS AS A BIOMARKER FOR ALPHA SYNUCLEIN ASSOCIATED PATHOLOGIES AND A METHOD OF TREATMENT OF PARKINSON'S DISEASE AND THE RELATED NEURODEGENERATIONS” (YISSUM RESEARCH DEVELOPMENT COMPANY OF THE HEBREW …, priority 2021, published 2023)

Columns and labels:
[1] = system: APT1/APT2 depalmitoylases; test: PIP3/PIP2 ratio by FACS in α-Syn expressing HepG2 cells with depalmitoylase inhibitors; assay type: cell-based; settings: serum starved 4 hours, 10 μM each
Procedure: ML348 and ML349, inhibit the depalmitoylating enzymes Acyl protein thioesterase 1 and 2 (APT-1, APT-2, respectively). HepG2 cells were infected to express a mock vector (EV) or α-Syn. 5 days post infection, cells were serum starved for 4 hours in the presence of the indicated inhibitors: 2-Bromo-Palmitate (2BP 50 μM, an inhibitor of palmitoylation), ML348 and ML349 (10 μM each). PIP levels determined by FACS as in FIG. 4. The ratio of PI3,4,5P3 (PIP3) to PI4,5P2 (PIP2) is presented. A representative experiment out of n=2 highly similar experiments. Mean±SE of the replicates within one experiment, n>2,000 gated cells.

PI3K/AKT pathway [2] = test: Treatments in disease models with inhibitors of the PI3K/AKT pathway
Excerpt: The PI3K/AKT pathway is activated in brains affected with PD and models thereof. Activated PI3K/AKT is exemplified by increases in PI3-Ps, including PI3,4,5P3 and PI3,4P2 that are required for the phosphorylation and activation of AKT phosphorylation at Thr308 and Ser 473. α-Syn is involved in activation of PI3K/AKT pathway. PI3K/AKT activation by α-Syn involves protein palmitoylation. […] Inhibitors of the PI3K/AKT pathway are useful to inhibit α-Syn′ toxicity. These may include Alpelisib and additional inhibitors of PI3K class I that act peripherally not crossing the blood brain barrier (BBB); or GDC-0084 and similar agents that can cross the BBB and act at the central nervous system. Or inhibitors of class II PI3K, for example, HY-151491, HY-151492 or HY-151490.α-Syn enhances PI3K activity by enhancing protein palmitoylation, including Ras palmitoylation that regulates PI3K activity. Class I and class II PI3Ks enzymes harbor a Ras binding domain and thus are affected by α-Syn. Class I and class II PI3Ks enzymes are activated by α-Syn and are targets for PD therapy. Inhibitors for class I and class II PI3Ks may be used for drug repurposing

PI3K/AKT pathway [3] = test: PIP3/PIP2 ratio (FACS) and PSer473/total AKT (Western blot) in HepG2 cells expressing α-Syn; assay type: cell-based; settings: inhibitor 100 nM for 2 hours, combined with CRISPR/CAS for PI3KCA or PI3KCB
Procedure: FIGS. 25A-25D include vertical bar graphs showing that silencing either PI3KCA or PI3KCB interfere with α-Syn-mediated AKT activation. (25A) HepG2 cells were co-infected with an empty vector (EV) or α-Syn expressing vector together with a CRISPR/CAS vector to silence either PI3KCA (CA, p110α) or PI3KCB (CB, p110β), or a control vector (CT). 72 hours post infection, cells were processed for the detection of PIPs by FACS or analyzed by Western blotting for the detection of AKT. […] (25B) The effect of PIK75 (100 nM, PI3KCA inhibitor) or TGX 221 (100 nM, PIKCB inhibitor) on PIP3/PIP2 ratio (left) or PSer473/total AKT ratio (right) as a function of α-Syn expression. Inhibitors were added for 2 hours before cells were lysed. […] Results are mean±SD of n=3-4 trials.

[4] = system: Numb-associated kinases (NAKs); test: pAP2 (phospho-Thr156 μ2 subunit of AP2) signal by ICC in SK-Mel2 cells; assay type: cell-based; settings: 10 μM for 3 hours
Procedure: FIGS. 12A-12H include fluorescent micrographs and graphs showing that α-Syn colocalizes with phosphorylated AP2 and PIP2 on clathrin-coated pits. (12A) SK-Mel2 cells were processed for the detection of the immunoreactive signals of endogenous α-Syn (ab 21976 ab, red), phosphorylated Thr156 μ2 subunit of AP2 (pAP2; gray) and PI4,5P2 (green) by immunocytochemistry (ICC). Bar=10 μm. (12B) SK-Mel2 cells treated with LP-935509 (10 μM, for 3 hours), to inhibit the phosphorylation of the μ2 subunit of AP2 and processed for ICC as in (12A). Bar=[…]. (12C) SK-Mel2 cells infected with lentivirus encoding shSNCA to silence α-Syn expression. Cells were treated with LP-935509 inhibitor as in (12B) and processed for ICC. Bar=[…]. (12D) SK-Mel2 cells as in (12A), however, immunoreacted for PI3,4P2 detection (green). Bar=[…]. […] Cells analyzed by FACS to immunodetect PI4,5P2 levels. […] (12G) Cells analyzed by FACS as in (12F) to detect PI3,4P2 signal. […] Colocalization of the signal obtained for α-Syn with the specified PIP was quantified and normalized to total α-Syn positive spots. […]
Phosphorylation at Thr156 of μ2 subunit of the clathrin adaptor AP2 starts following its binding to PI4,5P2 at the initiation of a CCP and throughout vesicle lifetime. The inventors analyzed SK-Mel2 cells, which express detectable levels of endogenous α-Syn protein. […]

HEK 293T cells [5] = test: PI4,5P2 levels by ICC after rapamycin-induced recruitment of the Inp45p phosphatase to the plasma membrane; assay type: cell-based; settings: HEK 293T expressing Lyn-FRB and FKBP-CFP-Inp54p, rapamycin 500 nM; DMSO treated cells set at 100%
Procedure: (§1) FIGS. 15A-15E include fluorescent micrographs, a micrograph, and graphs showing that the enhancing effect of α-Syn on CME is PI4,5P2 dependent. (15A) HEK 293T cells, transfected to co-express the three plasmids: Lyn-FRB, FKBP-CFP-Inp54p and WT α-Syn. On day of experiment, cells were serum starved for 90 minutes and then incubated for 7 minutes with 568-Tf and rapamycin (500 nM) to induce the recruitment of the Inp45p phosphatase (P-ase) to the plasma membrane along with internalization of 568-Tf. Control cells were treated in parallel with DMSO (0.5% v/v). Cells were then acid-washed, fixed and immunoreacted with anti α-Syn ab (MJFR1; Green). Direct fluorescence for CFP (P-ase; Grey) and 568-Tf (Red). (15B) HEK 293T cells expressing Lyn-FRB and FKBP-CFP-Inp54p were treated either with rapamycin or DMSO as described in (15A), followed by immunoreaction with anti PI4,5P2 ab (Echelon). A quantification of PI4,5P2 signal is shown (n>9 cells per treatment; mean±SE; * P<0.01 t-test). (15C) Graph showing quantification of internalized 568-Tf signal in cells transfected and treated as in (15A). Cells transfected with a mock vector (white bars, squares) or α-Syn (black bars, circles). […] Protein samples were analyzed by a western blot, immunoreacted with anti-Nir2 ab (Abcam). […] Sister cultures were immunoreacted with anti PI4,5P2 ab and analyzed by FACS. […]

HEK 293T cells [6] = test: 568-Tf (transferrin) endocytosis with the rapamycin-inducible phosphatase; assay type: cell-based; settings: control cultures without Inp45p expression
Procedure: as §1

Procedure for muscarinic receptors: To confirm the specificity of the PI4,5P2 signal that the inventors detected using anti PI4,5P2 Ab in cortical neurons, PI4,5P2 signal depletion following phospholipase C (PLC) activation was determined. […] Control cells were conditioned and treated in parallel but without the drug. Cells were fixed and immunoreacted with anti PI4,5P2 ab (FIG. 10A).

With `O=C(CN1CCN(C(=O)c2ccco2)CC1)Nc1cc(C(F)(F)F)ccc1Cl` [ML348] the “effects of α-Syn to enhance PIP3 levels (PIP3 to PIP2 ratio)” value [1] was “interfere with the effects of α-Syn to enhance PIP3 levels”.
`NC1(c2ccc(-c3nc4ccn5c(=O)[nH]nc5c4cc3-c3ccccc3)cc2)CCC1` [MK2206] was tested, and the “aberrant activation of the PI3K/AKT pathway by α-Syn” value (PI3K/AKT pathway [2]) was “reduce the aberrant activation of this pathway by α-Syn”.
`Cc1cc(C(C)Nc2ccccc2)c2nc(N3CCOCC3)cc(=O)n2c1` (stereo not drawn) [TGX 221] was tested, and the “α-Syn-mediated increases in PI3K/AKT pathway activation (PIP3/PIP2 ratio, PSer473/total AKT)” value (PI3K/AKT pathway [3]) was “inhibition of α-Syn-mediated increases in PI3K/AKT pathway activation” and the “aberrant activation of the PI3K/AKT pathway by α-Syn” value (PI3K/AKT pathway [2]) was “reduce the aberrant activation of this pathway by α-Syn”.
In the case of `Cc1ccc([N+](=O)[O-])cc1S(=O)(=O)N(C)/N=C/c1cnc2ccc(Br)cn12` [PIK75], the “α-Syn-mediated increases in PI3K/AKT pathway activation (PIP3/PIP2 ratio, PSer473/total AKT)” value (PI3K/AKT pathway [3]) is reported as “inhibition of α-Syn-mediated increases in PI3K/AKT pathway activation” and the “aberrant activation of the PI3K/AKT pathway by α-Syn” value (PI3K/AKT pathway [2]) is reported as “reduce the aberrant activation of this pathway by α-Syn”.
With `COc1ccc(N2CCN(C(=O)c3cc4c(s3)-c3ccccc3S(=O)(=O)C4)CC2)cc1` [ML349] the “effects of α-Syn to enhance PIP3 levels (PIP3 to PIP2 ratio)” value [1] was “interfere with the effects of α-Syn to enhance PIP3 levels”.
In the case of `COc1ncccc1-c1cnn2ccc(N3CCN(C(=O)OC(C)C)CC3)nc12` [LP-935509], the “colocalization of α-Syn and pAP2” value [4] is reported as “no obvious colocalization” and the pAP2 signal [4] is reported as “dramatically reduced”.
For `CC[C@@H]1C(=O)OC[C@@H]1Cc1cncn1C` [pilocarpine], the “PI4,5P2 signal following PLC activation” value (muscarinic receptors) was “loss of PI4,5P2 signal”.
In the case of `CO[C@H]1C[C@@H]2CC[C@@H](C)[C@@](O)(O2)C(=O)C(=O)N2CCCC[C@H]2C(=O)O[C@H]([C@H](C)C[C@@H]2CC[C@@H](O)[C@H](OC)C2)CC(=O)[C@H](C)/C=C(\C)[C@@H](O)[C@@H](OC)C(=O)[C@H](C)C[C@H](C)/C=C/C=C/C=C/1C` [rapamycin], the “PI4,5P2 levels” value (HEK 293T cells [5]) is reported as 26% and the “α-Syn-induced CME (568-Tf internalization)” value (HEK 293T cells [6]) is reported as “no effect”.
